“And” between values parts separate entries of the source, which are not always exact repeats. Identical values can stand only once. Counter-ions that a name gives are not always drawn. Like-named read-outs stand apart in the source and are kept apart here.
Key:
[1] = tested on: SUDHL10; assay: Induction of cytotoxicity (CellTiter-Glo, 5 h), SUDHL10
[2] = molecular target: MCL-1 (Homo sapiens, UniProt Q07820); assay: Protein-protein interaction assay MCL-1/Noxa BH3 peptide (MCL-1 assay), TR-FRET; assay type: binding; settings: MBP-MCL-1 / Noxa BH3-derived peptide, median
Outline: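 TR-FRET, 665/622 nm emission ratio (excitation 330–350 nm), measured MCL-1/Noxa complex formation. 1 nM MBP-MCL-1, 50 mM Tris/HCl pH 7, 0.1% BGG, 2 mM DTT. Incubation 1 h at 22 °C, then overnight at 4 °C. IC50 by 4-parameter regression, normalized to DMSO (0%) and no-MCL-1 (100%) controls.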

[3] = tested on: SUDHL10; assay: Anti-proliferative effect (CellTiter-Glo, 72 h), SUDHL10; assay type: cell-based; settings: SUDHL10 cells, antiproliferation, 72 h incubation, median, read-out: Antiproli SUDHL10 [M] (median)
Outline: (§1)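 A time zero plate, read with CellTiter-Glo shortly after seeding, served as baseline; compound-treated plates were incubated 72 h at 37 °C and then read identically by luminescence.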

[4] = tested on: SUDHL5; assay: Induction of cytotoxicity (CellTiter-Glo, 5 h), SUDHL5
[5] = tested on: SUDHL10; assay: Induction of caspase-3/7 activity (Caspase-Glo 3/7), SUDHL10; assay type: cell-based; settings: caspase-3/7 induction, SUDHL10 cells, 3 h treatment, median
Outline: (§2)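 DLBCL cells treated with compounds for 3 h at 37 °C, then caspase-3/7 activity read by Caspase-Glo 3/7 luminescence. Medium-only background subtracted; EC50 fitted with C0 fixed at 1 and top set to the reference compound's maximal induction.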

[6] = tested on: SUDHL5; assay: Anti-proliferative effect (CellTiter-Glo, 72 h), SUDHL5; assay type: cell-based; settings: SUDHL5 cells, antiproliferation, 72 h incubation, median, read-out: Antiproli SUDHL5 [M] (median)
Outline: as §1

[7] = tested on: SUDHL5; assay: Induction of caspase-3/7 activity (Caspase-Glo 3/7), SUDHL5; assay type: cell-based; settings: caspase-3/7 induction, SUDHL5 cells, 3 h treatment, median
Outline: as §2

[8] = tested on: A2780; assay: Anti-proliferative effect (CellTiter-Glo, 72 h), A2780; assay type: cell-based; settings: A2780 cells, median, read-out: IC50 antiproliferation assay A2780 [M] (median)
Outline: as §1

[9] = tested on: OPM2; assay: Anti-proliferative effect (CellTiter-Glo, 72 h), OPM2; assay type: cell-based; settings: OPM2 cells, median, read-out: IC50 antiproliferation assay OPM2 [M] (median)
Outline: as §1

[10] = Homo sapiens, SU-DHL10, 5 h, read-out: Cytotox SUDHL10 [M] (median), SUDHL10 cells, cytotoxicity induction, CellTiter-Glo, 5 h incubation, median
[11] = read-out: Cytotox SUDHL10 [M] (median), SUDHL10 cells, cytotoxicity induction, CellTiter-Glo, 5 h incubation, median
[12] = Homo sapiens, SU-DHL-5, 5 h, read-out: Cytotox SUDHL5 [M] (median), SUDHL5 cells, cytotoxicity induction, CellTiter-Glo, 5 h incubation, median
[13] = read-out: Cytotox SUDHL5 [M] (median), SUDHL5 cells, cytotoxicity induction, CellTiter-Glo, 5 h incubation, median

Sequence of MCL-1 (Q07820 whole entry): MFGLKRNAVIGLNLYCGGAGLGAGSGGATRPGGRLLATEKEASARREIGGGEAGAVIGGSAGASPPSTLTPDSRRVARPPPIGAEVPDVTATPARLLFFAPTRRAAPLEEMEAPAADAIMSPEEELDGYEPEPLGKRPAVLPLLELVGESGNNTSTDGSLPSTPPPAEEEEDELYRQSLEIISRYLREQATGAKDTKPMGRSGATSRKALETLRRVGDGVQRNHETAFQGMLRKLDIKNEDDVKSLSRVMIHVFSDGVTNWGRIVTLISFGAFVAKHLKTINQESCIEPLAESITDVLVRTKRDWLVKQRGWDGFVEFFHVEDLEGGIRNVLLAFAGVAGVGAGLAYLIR

| Compound | IC50 [1, 10] | IC50 [1, 11] | IC50 [2] | IC50 ([3]; Homo sapiens, SU-DHL10, 72 h) | IC50 [4, 12] | EC50 ([5]; Homo sapiens, SU-DHL10, 3 h) | EC50 [5] | IC50 ([6]; Homo sapiens, SU-DHL-5, 72 h) | EC50 ([7]; Homo sapiens, SU-DHL-5, 3 h) | IC50 ([8]; Homo sapiens, A2780, 72 h) | IC50 [9] | IC50 ([9]; Homo sapiens, OPM-2, 72 h) | IC50 [4, 13] | IC50 [6] | EC50 [7] | IC50 [8] | IC50 [3] |
| --- | --- | --- | --- | --- | --- | --- | --- | --- | --- | --- | --- | --- | --- | --- | --- | --- | --- |
| CN1CCCn2c(C(=O)O)c(CCCOc3cccc4ccccc34)c3cccc(c32)-c2c(CNCC(F)(F)F)nn(C)c2C1 (single isomer, unassigned; enantiomer 1) [Example 130, 7,9-dimethyl-1-(3-(naphthalen-1-yloxy)propyl-11-{[(2,2,2-trifluoroethyl)amino]methyl}-4,5,6,7,8,9-hexahydropyrazolo[3′,4′:7,8][1,5]diazecino[9,10,1-hi]indole-2-carboxylic acid-N-ethylethanamine Salt (Enantiomer 1)] | 1.71e-05 M | > 3.3e-05 M | 0.0331 µM | 6.42e-06 M | 1.53e-05 M | 24.4 µM | > 33 µM | 1.17e-05 M | 18.9 µM | 1.11e-05 M | 6e-06 M |  |  |  |  |  |  |
| COC1(c2ccc(OCc3nn(C)c4c3-c3cccc5c(CCCOc6cccc7ccccc67)c(C(=O)O)n(c35)CC=CCOC4)cc2)CCOCC1 (racemic) [Example 1-64, (rac)-(E/Z)-3-{[4-(4-methoxytetrahydro-2H-pyran-4-yl)phenoxy]methyl}-1-methyl-7-[3-(naphthalen-1-yloxy)propyl]-1,10,13,15-tetrahydropyrazolo[4′,3′:9,10][1,6]oxazacycloundecino[8,7,6-hi]indole-8-carboxylic Acid] | > 3.3e-05 M | 3.12e-05 M and 2.47e-05 M | 0.0988 µM | 7.4e-06 M | 2.65e-05 M | 29.4 µM |  | 1.2e-05 M | 19.9 µM | 1.21e-05 M |  | 2.15e-05 M |  |  |  |  |  |
| CCN(CC)S(=O)(=O)N1CCN(c2ccc(OCc3nn(C)c4c3-c3cccc5c(CCCOc6cccc7ccccc67)c(C(=O)O)n(c35)CCCCOC4)cc2)CC1 (single isomer, unassigned; enantiomer 1) [Example 1-4, 3-({4-[4-(diethylsulfamoyl)piperazin-1-yl]phenoxy}methyl)-1-methyl-7-[3-(naphthalen-1-yloxy)propyl]-1,10,11,12,13,15-hexahydropyrazolo[4′,3′:9,10][1,6]oxazacycloundecino[8,7,6-hi]indole-8-Carboxylic acid (Enantiomer 1)] | 7.42e-06 M |  | 0.304 µM | 1.73e-06 M |  | 5.18 µM |  |  |  |  | 3.36e-06 M |  | 1.83e-05 M | 2.43e-06 M | 15.2 µM | 2.47e-06 M |  |
| CN1CCCn2c(C(=O)O)c(CCCOc3cccc4ccccc34)c3cccc(c32)-c2c(COc3ccc(N4CCN(S(C)(=O)=O)CC4)cc3)nn(C)c2C1 (single isomer, unassigned) [Example 1-47, (−)-7,9-dimethyl-11-({4-[4-(methylsulfonyl)piperazin-1-yl]phenoxy}methyl)-1-[3-(naphthalen-1-yloxy)propyl]-4,5,6,7,8,9-hexahydropyrazolo[3′,4′:7,8][1,5]diazecino[9,10,1-hi]indole-2-carboxylic Acid] |  | 1.32e-05 M | 0.0193 µM |  |  |  | 9.54 µM |  |  |  | 8.35e-06 M |  | 1.08e-05 M | 3.91e-06 M | 9.12 µM | 6.4e-06 M | 3.99e-06 M |
| Cn1nc(COc2ccc(S(C)(=O)=O)cc2)c2c1COCC=CCn1c(C(=O)O)c(CCCOc3cccc4ccccc34)c3cccc-2c31 (single isomer, unassigned) [Example 1-53, (E/Z)-1-methyl-3-{[4-(methylsulfonyl)phenoxy]methyl}-7-[3-(naphthalen-1-yloxy)propyl]-1,10,13,15-tetrahydropyrazolo[4′,3′:9,10][1,6]oxazacycloundecino[8,7,6-hi]indole-8-carboxylic Acid] |  | 7.89e-06 M | 0.0162 µM |  |  |  | 7.5 µM |  |  |  | > 3.3e-05 M |  | 6.49e-06 M | 1.36e-05 M | 10.2 µM | 2.48e-05 M | 7.2e-06 M |
| Cc1c2c(nn1CCN1CCOCC1)COCCCCn1c(C(=O)O)c(CCCOc3cccc4ccccc34)c3cccc-2c31 (racemic) [Example 053, (rac)-3-methyl-2-[2-(morpholin-4-yl)ethyl]-7-[3-(naphthalen-1-yloxy)propyl]-2,10,11,12,13,15-hexahydropyrazolo[4′,3′:9,10][1,6]oxazacycloundecino[8,7,6-hi]indole-8-carboxylic Acid] | 7.75e-06 M |  | 0.00341 µM | 7.88e-06 M | 3e-06 M | 5.67 µM |  | 1.47e-06 M | 2.51 µM | > 3.3e-05 M |  | 1.11e-05 M |  |  |  |  |  |
| CCS(=O)(=O)N1CCN(c2ccc(N3CCCn4c(C(=O)O)c(CCCOc5cccc6ccccc56)c5cccc(c54)-c4c(C)nn(C)c4C3)cc2)CC1 (single isomer, unassigned; enantiomer 2) [Example 1-110, 7-{4-[4-(Ethylsulfonyl)piperazin-1-yl]phenyl}-9,11-dimethyl-1-[3-(1-naphthyloxy)propyl]-4,5,6,7,8,9-hexahydropyrazolo[3′,4′:7,8][1,5]diazecino[9,10,1-hi]indole-2-carboxylic Acid (Enantiomer 2)] |  | 1.69e-05 M | 0.0581 µM |  |  |  | 15.3 µM |  |  |  | 8.62e-06 M |  | 1.53e-05 M | 4.04e-06 M | 15.3 µM | 7.54e-06 M | 2.58e-06 M |
| CN(C)S(=O)(=O)N1CCN(c2ccc(OCc3nn(C)c4c3-c3cccc5c(CCCOc6cccc7ccccc67)c(C(=O)O)n(c35)CC=CCOC4)cc2)CC1 (racemic) [Example 1-17, (rac)-(E/Z)-3-({4-([4-(dimethylsulfamoyl)piperazin-1-yl]phenoxy}methyl)-1-methyl-7-[3-(naphthalen-1-yloxy)propyl]-1,10,13,15-tetrahydropyrazolo[4′,3′:9,10][1,6]oxazacycloundecino[8,7,6-hi]indole-8-carboxylic Acid] | 6.88e-06 M |  | 0.0127 µM | 4.25e-06 M | 4.36e-06 M | 4.39 µM |  | 2.99e-06 M | 3.73 µM | 8.94e-06 M |  | 4.37e-06 M |  |  |  |  |  |
| CN(C)S(=O)(=O)N1CCN(c2ccc(OCc3nn(C)c4c3-c3cccc5c(CCCOc6cccc7ccccc67)c(C(=O)O)n(c35)CCCCOC4)cc2)CC1 (single isomer, unassigned; enantiomer 2) [Example 1-20, 3-({4-[4-(dimethylsulfamoyl)piperazin-1-yl]phenoxy}methyl)-1-methyl-7-[3-(naphthalen-1-yloxy)propyl]-1,10,11,12,13,15-hexahydropyrazolo[4′,3′:9,10][1,6]oxazacycloundecino[8,7,6-hi]indole-8-carboxylic Acid (Enantiomer 2)] |  | 3.06e-06 M | 0.00285 µM | 2.19e-06 M |  |  | 1.95 µM |  |  | 1.38e-05 M |  | 2.32e-06 M | 2.11e-06 M | 1.25e-06 M | 1.63 µM |  |  |
| COCC(=O)N1CCN(c2ccc(OCc3nn(C)c4c3-c3cccc5c(CCCOc6cccc7ccccc67)c(C(=O)O)n(c35)CCCCOC4)cc2)CC1 (racemic) [Example 1-27, (rac)-3-({4-[4-(methoxyacetyl)piperazin-1-yl]phenoxy}methyl)-1-methyl-7-[3-(naphthalen-1-yloxy)propyl]-1,10,11,12,13,15-hexahydropyrazolo[4′,3′:9,10][1,6]oxazacycloundecino[8,7,6-hi]indole-8-carboxylic Acid] | 8.44e-06 M |  | 0.00208 µM | 6.3e-06 M | 3.53e-06 M | 7.5 µM |  | 2.95e-06 M | 4.42 µM | 2.23e-05 M |  | 8.75e-06 M |  |  |  |  |  |
